Measured values taken from paper PMC11230136 (Cell reports, 2024).

Assays:
[1] = system: pilocarpine-induced SE mice; experiment: Pilocarpine-induced status epilepticus
[2] = target: activated c-Abl immunoprecipitated from neurons (Rattus norvegicus, UniProt A0ABK0LKB8); experiment: In vitro phosphorylation kinase assay; type: biochemical; conditions: pre-incubation with 5 μM inhibitor (controls)
[3] = system: hippocampal neurons; experiment: Apoptotic nuclei; type: cell-based, rat; conditions: 1-h 100 μM NMDA, co-incubation with 5 μM inhibitor
[4] = In vivo toxicity / tolerability observation; set-up: species or system mouse; conditions: diet 20, 67 or 200 ppm for 14 days
[5] = i.p. pre-treatment 12.5 mg/kg for 3 days, 60 min post pilocarpine
[6] = diet for 15 days (neurotinib 67 ppm, nilotinib 200 ppm), 60 min post pilocarpine

Sequence of activated c-Abl immunoprecipitated from neurons (A0ABK0LKB8 1-1124): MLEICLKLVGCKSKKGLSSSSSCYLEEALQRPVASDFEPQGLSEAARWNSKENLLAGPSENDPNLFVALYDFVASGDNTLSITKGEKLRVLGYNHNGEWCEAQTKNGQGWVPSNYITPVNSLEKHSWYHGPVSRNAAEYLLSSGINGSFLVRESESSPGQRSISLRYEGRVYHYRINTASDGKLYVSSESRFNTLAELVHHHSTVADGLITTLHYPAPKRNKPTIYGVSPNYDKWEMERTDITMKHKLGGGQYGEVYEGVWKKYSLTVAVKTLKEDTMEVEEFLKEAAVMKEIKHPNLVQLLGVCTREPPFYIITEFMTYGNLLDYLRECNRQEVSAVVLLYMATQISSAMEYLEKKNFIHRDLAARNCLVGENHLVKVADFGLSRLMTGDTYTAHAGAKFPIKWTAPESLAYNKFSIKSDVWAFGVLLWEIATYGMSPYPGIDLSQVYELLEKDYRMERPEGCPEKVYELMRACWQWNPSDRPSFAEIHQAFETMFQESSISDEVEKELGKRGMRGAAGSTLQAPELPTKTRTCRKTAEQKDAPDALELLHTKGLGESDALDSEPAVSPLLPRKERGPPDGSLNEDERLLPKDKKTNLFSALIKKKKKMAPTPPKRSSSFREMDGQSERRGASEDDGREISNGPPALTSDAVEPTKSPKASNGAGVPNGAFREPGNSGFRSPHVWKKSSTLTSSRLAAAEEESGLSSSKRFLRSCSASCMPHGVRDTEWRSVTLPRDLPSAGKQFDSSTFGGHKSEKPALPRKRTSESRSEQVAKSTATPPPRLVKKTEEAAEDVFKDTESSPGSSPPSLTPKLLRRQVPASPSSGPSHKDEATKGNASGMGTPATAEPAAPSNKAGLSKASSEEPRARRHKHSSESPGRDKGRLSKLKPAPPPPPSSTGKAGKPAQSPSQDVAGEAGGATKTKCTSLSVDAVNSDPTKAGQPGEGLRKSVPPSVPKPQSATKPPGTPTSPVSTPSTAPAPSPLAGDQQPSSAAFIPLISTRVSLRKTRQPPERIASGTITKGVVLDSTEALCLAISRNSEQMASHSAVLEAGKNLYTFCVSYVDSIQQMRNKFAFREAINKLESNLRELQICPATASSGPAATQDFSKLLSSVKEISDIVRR

SMILES	Mice with SE [1, 5] [%]	Mice with single seizures but no SE [1, 5] [%]	Total mortality [1, 5] [%]	CRKII-GST phosphorylation [2]	apoptotic nuclei (Hoechst) [3]	Mice with SE [1, 6] [%]	Total mortality [1, 6]	Latency SE ([1]; diet for 15 days (neurotinib 67 ppm, nilotinib 200 ppm), mean ± SEM) [min]	acute toxicity or changes in behavior [4]
Cc1ccc(NC(=O)c2ccc(CN3CCN(C)CC3)cc2)cc1Nc1nccc(-c2cccnc2)n1 [imatinib]	68	29	36	inhibits CRKII-GST phosphorylation	apoptosis reduction				
Cc1cn(-c2cc(NC(=O)c3ccc(C)c(Nc4nccc(-c5cccnc5)n4)c3)cc(C(F)(F)F)c2)cn1 [nilotinib]						70	none	32.6 ± 6.1	No signs of acute toxicity or changes in behavior
